Values quoted from earlier work in US20160375049A1, “COMPOSITIONS” (GLOBALACORN LTD, priority 2013, published 2016).

Tests used:
P2X3 receptors = target: T1, P2X3 receptors (Homo sapiens, UniProt P56373)
T1 sequence (P56373 1-397): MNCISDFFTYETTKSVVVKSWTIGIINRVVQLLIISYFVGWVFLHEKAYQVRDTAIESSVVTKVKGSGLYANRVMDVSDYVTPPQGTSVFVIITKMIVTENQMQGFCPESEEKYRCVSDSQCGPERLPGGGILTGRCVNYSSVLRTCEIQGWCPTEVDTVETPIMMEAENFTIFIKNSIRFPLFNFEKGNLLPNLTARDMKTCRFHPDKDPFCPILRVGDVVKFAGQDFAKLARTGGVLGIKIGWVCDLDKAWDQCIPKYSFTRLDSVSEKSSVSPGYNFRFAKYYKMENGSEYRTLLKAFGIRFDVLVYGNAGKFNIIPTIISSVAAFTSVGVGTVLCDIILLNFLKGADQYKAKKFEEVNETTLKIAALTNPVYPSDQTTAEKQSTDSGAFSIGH

[1] = system: inflammatory and neuropathic pain models; conditions: systemic administration
persistent pain = conditions: in vivo
[2] = system: acute noxious stimulation; conditions: in vivo
nociception = conditions: in vivo

Compound	binding to P2X3 receptors, concentration range (P2X3 receptors)	nociception in inflammatory and neuropathic pain models [1]	persistent pain in formalin and acetic acid-induced abdominal constriction tests (persistent pain)	activity in models of acute noxious stimulation [2]	anti-nociception in animal models (nociception)
O=C(O)c1cc(C(=O)O)c(C(=O)N(Cc2cccc(Oc3ccccc3)c2)[C@H]2CCCc3ccccc32)cc1C(=O)O [A-317491]	micromolar range	effectively reduced nociception	effectively blocked persistent pain	generally inactive	–
COc1cc(Cc2cnc(N)nc2N)c(C(C)C)cc1OC [RO-3]	–	–	–	–	induce anti-nociception
